Source: US7435837B2, “Dihydrobenzofuranyl alkanamine derivatives and methods for using same” (Wyeth, priority 2003, dated 2008)

Legend:
[1] = target: T1, human 5-hydroxytryptamine-2C (h5-HT2C) receptor (Homo sapiens, UniProt P28335); test: [125I]DOI binding to membranes of CHO cells expressing the human 5-HT2C receptor; settings: [125I]DOI radioligand, CHO cell membranes, room temperature 60 min; read-out: 5-HT2C Affinity Ki
T1 construct: expressed in transfected cells; host or cells: CHO (Chinese Hamster Ovary) cells; membranes
T1 sequence (P28335 33-458): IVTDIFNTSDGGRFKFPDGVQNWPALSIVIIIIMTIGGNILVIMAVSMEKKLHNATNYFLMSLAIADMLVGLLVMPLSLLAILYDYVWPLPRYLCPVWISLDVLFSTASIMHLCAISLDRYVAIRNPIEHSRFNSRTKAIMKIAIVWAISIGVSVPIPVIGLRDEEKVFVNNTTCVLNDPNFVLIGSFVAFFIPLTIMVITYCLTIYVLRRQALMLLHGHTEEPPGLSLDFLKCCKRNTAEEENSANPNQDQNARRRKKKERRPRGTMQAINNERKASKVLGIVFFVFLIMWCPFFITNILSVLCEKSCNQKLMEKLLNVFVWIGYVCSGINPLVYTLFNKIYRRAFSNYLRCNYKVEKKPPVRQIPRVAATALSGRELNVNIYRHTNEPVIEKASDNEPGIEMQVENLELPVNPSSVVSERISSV

human 5-HT2C receptor = target: T2, human 5-HT2C receptor (Homo sapiens, UniProt P28335); test: 5-HT2C receptor-stimulated calcium mobilization (FLIPR) in CHO cells; format: cell-based; settings: for Emax: CHO, read-out: 5-HT2C Function Emax (%); for Emax / 5-HT2C Function Emax (%): percentage of the response observed with a maximally effective concentration of 5-HT; for EC50: calcium mobilization, CHO cells stably expressing human 5-HT2C, read-out: 5-HT2C Function EC50;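 as to all read-outs here: Fluo-3-AM fluorescence read on FLIPR every 1 s, agonist added after 10 baseline reads, response taken as peak minus lowest raw fluorescence count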
T2 sequence (P28335 33-458): T1 sequence (P28335 33-458)

Structure (SMILES) | Ki [1] [nM] | Emax (human 5-HT2C receptor) [%] | EC50 (human 5-HT2C receptor) [nM] | 5-HT2C Function Emax (%) (human 5-HT2C receptor)
NCC1Cc2cc(F)cc(-c3cc(F)ccc3F)c2O1 (racemic) [Example 220, (±)-{[7-(2,5-difluorophenyl)-5-fluoro-2,3-dihydro-1-benzofuran-2-yl]methyl}amine] | 8 | 90 | 30 | 
NCC1Cc2cccc(Cc3ccccc3)c2O1 (single isomer, unassigned; (-)) [Example 17, (−)-1-(7-benzyl-2,3-dihydro-1-benzofuran-2-yl)methanamine] | 66 |  | 100 | 70
NCC1Cc2cc(Cl)cc(-c3ccsc3)c2O1 (single isomer, unassigned; (-)) [Example 91, (−)-(5-chloro-7-thien-3-yl-2,3-dihydro-1-benzofuran-2-yl)methylamine] | 5 | 100 | 45 | 
COc1cc2c(c(-c3ccc(F)c(Cl)c3)c1)OC(CN)C2 (racemic) [Example 373, (±)-{[7-(3-chloro-4-fluorophenyl)-5-methoxy-2,3-dihydro-1-benzofuran-2-yl]methyl}amine] | 61 | 60 | 859 | 
CNCC1Cc2cc(F)cc(-c3cc(Cl)ccc3OC)c2O1 (racemic) [Example 458, (±)-{[7-(5-chloro-2-methoxyphenyl)-5-fluoro-2,3-dihydro-1-benzofuran-2-yl]methyl}methylamine] | 17 | 80 | 212 | 
NCC1Cc2cccc(-c3ccccc3C(F)(F)F)c2O1 (single isomer, unassigned; (-)) [Example 54, (−)-1-{7-[2-(trifluoromethyl)phenyl]-2,3-dihydro-1-benzofuran-2-yl}methanamine] | 0.5 | 85 | 9 | 
NCC1Cc2cccc(-c3cccc(Cl)c3)c2O1 (single isomer, unassigned; (-)) [Example 67, (−)-1-[7-(3-chlorophenyl)-2,3-dihydro-1-benzofuran-2-yl]methanamine] | 83 |  | 5760 | 70
COc1ccc(-c2cc(Cl)cc3c2OC(CN)C3)c(OC)c1 (racemic) [Example 254, (±)-{[5-chloro-7-(2,4-dimethoxyphenyl)-2,3-dihydro-1-benzofuran-2-yl]methyl}amine] | 0.89 | 90 | 11 | 
NCC1Cc2cc(C(F)(F)F)cc(-c3ccc(F)cc3F)c2O1 (racemic) [Example 332, (±)-{[7-(2,4-difluorophenyl)-5-(trifluoromethyl)-2,3-dihydro-1-benzofuran-2-yl]methyl}amine] | 37 | 80 | 111 | 
NCC1Cc2cccc(-c3c(Cl)cccc3Cl)c2O1 (racemic) [Example 140, (±)-1-[7-(2,6-dichlorophenyl)-2,3-dihydro-1-benzofuran-2-yl]methanamine] | 0.3 | 90 | 0.72 | 
CNCC1Cc2cc(OC)cc(-c3ccc(F)cc3F)c2O1 (racemic) [Example 497, (±)-{[7-(2,4-difluorophenyl)-5-methoxy-2,3-dihydro-1-benzofuran-2-yl]methyl}methylamine] | 37 | 70 | 315 | 
NCC1Cc2cc(Cl)cc(-c3ccccc3F)c2O1 (racemic) [Example 241, (±)-{[5-chloro-7-(2-fluorophenyl)-2,3-dihydro-1-benzofuran-2-yl]methyl}amine] | 0.3 | 90 | 29 | 
NCC1Cc2cccc(-c3ccc(F)cc3)c2O1 (racemic) [Example 73, (±)-1-[7-(4-fluorophenyl)-2,3-dihydro-1-benzofuran-2-yl]methanamine] | 5 | 100 | 41 | 
CNCC1Cc2cc(C)cc(-c3cc(Cl)ccc3Cl)c2O1 (single isomer, unassigned; (+)) [Example 487, (+)-{[7-(2,5-dichlorophenyl)-5-methyl-2,3-dihydro-1-benzofuran-2-yl]methyl}methylamine] | 0.06 | 100 | 3 | 
NCC1Cc2cc(-c3ccccc3)cc(-c3ccccc3)c2O1 (racemic) [Example 344, (±)-[(5,7-diphenyl-2,3-dihydro-1-benzofuran-2-yl)methyl]amine] | 275 | 60 | 2920 | 
COc1ccc(Cl)cc1-c1cc(Cl)cc2c1OC(CN)C2 (racemic) [Example 257, (±)-{[5-chloro-7-(5-chloro-2-methoxyphenyl)-2,3-dihydro-1-benzofuran-2-yl]methyl}amine] | 28 | 80 | 194 | 

Structure (SMILES) | Ki [1] [nM] | Emax (human 5-HT2C receptor) [%] | EC50 (human 5-HT2C receptor) [nM] | 5-HT2C Function Emax (%) (human 5-HT2C receptor)
CNCC1Cc2cccc(-c3ccccc3C)c2O1 (single isomer, unassigned; (-)) [Example 407, (−)-N-methyl-1-[7-(2-methylphenyl)-2,3-dihydro-1-benzofuran-2-yl]methanamine] | 8.5 |  | 149 | 60
NCC1Cc2cc(F)cc(-c3ccc(Cl)cc3)c2O1 (racemic) [Example 200, (±)-{[5-fluoro-7-(4-chlorophenyl)-2,3-dihydro-1-benzofuran-2-yl]methyl}amine] | 12 | 80 | 369 | 
NCC1Cc2cccc(-c3ccc(Cl)cc3Cl)c2O1 (racemic) [Example 83, (±)-1-[7-(2,4-dichlorophenyl)-2,3-dihydro-1-benzofuran-2-yl]methanamine] | 1 | 100 | 7.9 | 
COc1cc2c(c(-c3ccccc3OC)c1)OC(CCN)C2 (racemic) [Example 554, (±)-{2-[7-(2-methoxyphenyl)-5-methoxy-2,3-dihydro-1-benzofuran-2-yl]ethyl}amine] | 41 | 70 | 2 | 
Cc1ccccc1-c1cc(Cl)cc2c1OC(CN)C2 (single isomer, unassigned; (-)) [Example 97, (−)-1-[5-chloro-7-(2-methylphenyl)-2,3-dihydro-1-benzofuran-2-yl]methanamine] | 4 |  | 577 | 60
CC(C)NCC1Cc2cccc(-c3c(Cl)cccc3Cl)c2O1 (racemic) [Example 393, (±)-N-{[7-(2,6-dichlorophenyl)-2,3-dihydro-1-benzofuran-2-yl]methyl}propan-2-amine] | 21.5 | 60 | 45 | 
CC(C)(C)c1cccc2c1OC(CN)C2 (single isomer, unassigned; (-)) [Example 25, (−)-1-(7-tert-butyl-2,3-dihydro-1-benzofuran-2-yl)methanamine] | 18 | 90 | 10 | 
CNCC1Cc2cc(OC)cc(-c3cc(C)ccc3C)c2O1 (racemic) [Example 500, (±)-{[7-(2,5-dimethylphenyl)-5-methoxy-2,3-dihydro-1-benzofuran-2-yl]methyl}methylamine] | 86 | 80 | 256 | 
Cc1ccc(Cl)cc1-c1cccc2c1OC(CN)C2 (racemic) [Example 168, (±)-{[7-(5-chloro-2-methylphenyl)-2,3-dihydro-1-benzofuran-2-yl]methyl}amine] | 2 | 100 | 1 | 
CNCC1Cc2ccc(F)c(-c3ccccc3Cl)c2O1 (racemic) [Example 402, (±)-{[6-fluoro-7-(2-chlorophenyl)-2,3-dihydro-1-benzofuran-2-yl]methyl}methylamine] | 0.24 | 90 | 0.1 | 
NCC1Cc2cccc(C3CCCC3)c2O1 (racemic) [Example 8, (±)-(7-cyclopentyl-2,3-dihydro-1-benzofuran-2-yl)methylamine] | 9 | 85 | 188 | 
NCC1Cc2cccc(-c3c(Cl)cc(Cl)cc3Cl)c2O1 (racemic) [Example 166, (±)-{[7-(2,4,6-trichlorophenyl)-2,3-dihydro-1-benzofuran-2-yl]methyl}amine] | 8 | 90 | 0.2 | 
NCC1Cc2cccc(-c3ccc(Cl)cc3)c2O1 (racemic) [Example 76, (±)-1-[7-(4-chlorophenyl)-2,3-dihydro-1-benzofuran-2-yl]methanamine] | 3 | 90 | 25 | 
NCC1Cc2cc(F)cc(-c3ccccc3C(F)(F)F)c2O1 (single isomer, unassigned; (-)) [Example 151, (−)-1-{5-fluoro-7-[2-(trifluoromethyl)phenyl]-2,3-dihydro-1-benzofuran-2-yl}methanamine] | 1.1 |  | 27 | 100
CNCC1Cc2cc(C)cc(-c3ccccc3Cl)c2O1 (racemic) [Example 476, (±)-{[7-(2-chlorophenyl)-5-methyl-2,3-dihydro-1-benzofuran-2-yl]methyl}methylamine] | 0.2 | 100 | 5 | 
